pIC50: −log10 of the molar value. Where a name gives a salt, the structure may show the parent alone. Activity calls are given as the source filed them. No cut-off for these calls is given here.
Experiments:
Type in all cases: functional, cell-based
[1] = test system: NALM-6; assay: Cytotoxicity against Homo sapiens (human) NALM6 cells assessed as reduction in cell survival fraction after 48 hr by MTT assay; details: NALM-6, 48 h
[2] = test system: HL-60; assay: Cytotoxicity against Homo sapiens (human) HL60 cells assessed as reduction in cell survival fraction after 48 hr by MTT assay; details: HL-60, 48 h
[3] = test system: HL-60; assay: Induction of apoptosis in Homo sapiens (human) HL60 cells assessed as increase in cytosolic cytochrome c level after 0.5 to 4 hr by ELISA
[4] = test system: HL-60; assay: Induction of apoptosis in Homo sapiens (human) HL60 cells assessed as increase in cytosolic cytochrome c level at IC50 after 0.5 hr by ELISA
[5] = test system: HL-60; assay: Induction of apoptosis in Homo sapiens (human) HL60 cells assessed as increase in cytosolic cytochrome c level at 5 times IC50 after 0.5 hr by ELISA
[6] = test system: HL-60; assay: Induction of apoptosis in Homo sapiens (human) HL60 cells assessed as increase in cytosolic cytochrome c level at 0.2 to 5 times IC50 by ELISA; details: TDE = time-dependent effect
[7] = test system: HL-60; assay: Induction of apoptosis in Homo sapiens (human) HL60 cells assessed as increase in cytosolic cytochrome c level at 0.2 times IC50 after 0.5 hr by ELISA
[8] = Cytotoxicity against Homo sapiens (human) HL60/ADR cells assessed as reduction in cell survival fraction after 48 hr by MTT assay

| SMILES | pIC50 [1] | pIC50 [2] | Activity [3] | Activity [4] | Activity [5] | Activity [6] | Activity [7] | pIC50 [8] |
| --- | --- | --- | --- | --- | --- | --- | --- | --- |
| COC(=O)N/N=C/c1c(N)oc2ccccc2c1=O | 3.39 | 3.33 | – | – | – | – | – | – |
| Cc1cc2oc(N)c(/C=N/NCCO)c(=O)c2cc1C | 4.19 | 4.63 | – | – | – | – | – | – |
| Nc1oc2ccccc2c(=O)c1/C=N/Nc1cc(Cl)ccc1Cl | 3.30 | < 3.00 | – | – | – | – | – | – |
| COP(=S)(OC)N(C)/N=C/c1c(O)c2ccccc2oc1=O | 4.25 | 4.21 | – | – | – | – | – | – |
| COc1cccc2c1C(=O)c1c(O)c3c(c(O)c1C2=O)C[C@@](O)(C(=O)CO)C[C@@H]3O[C@H]1C[C@H](N)[C@H](O)[C@H](C)O1 [DOXORUBICIN HYDROCHLORIDE] | – | 7.40 | – | – | – | – | – | – |
| Nc1oc2ccccc2c(=O)c1/C=N/Nc1ccc(C(=O)O)cc1 | 3.20 | 3.03 | – | – | – | – | – | – |
| COP(=S)(OC)N(C)/N=C/c1coc2ccccc2c1=O | 4.54 | 4.46 | Dose-dependent effect | Active | Active | tde | Active | 4.51 |
| CCOP(=S)(OCC)N(C)/N=C/c1c(O)c2ccccc2oc1=O | 4.18 | 4.06 | – | – | – | – | – | – |
| Nc1oc2ccccc2c(=O)c1/C=N/NCCO | 4.38 | 4.31 | – | – | – | – | – | – |
| Nc1oc2ccc(Cl)cc2c(=O)c1/C=N/NCCO | 4.55 | 5.18 | Dose-dependent effect | Active | Active | tde | Active | 5.10 |
| CC(=O)CC(c1ccccc1)c1c(O)c2ccccc2oc1=O (stereo not given) [WARFARIN] | 4.13 | 3.31 | – | – | – | – | – | – |
| O=c1c(/C=N/Nc2cc(Cl)ccc2Cl)coc2ccccc12 | 4.07 | 3.58 | – | – | – | – | – | – |
| Nc1oc2ccccc2c(=O)c1/C=N/N=C(c1ccccc1)c1ccccc1 | 3.99 | 4.25 | – | – | – | – | – | 4.26 |
| COC(=O)N/N=C/c1coc2ccccc2c1=O | 3.51 | 3.43 | – | – | – | – | – | – |

Reference: ChEMBL document CHEMBL3044544, “Synthesis, preliminary cytotoxicity evaluation of new 3-formylchromone hydrazones and phosphorohydrazone derivatives of coumarin and chromone” (Med Chem Res, 2012)
